Laboratory results reported in ChEMBL document CHEMBL2440096, “Synthesis, structure analysis, antitumor evaluation and 3D-QSAR studies of 3,6-disubstituted-dihydro-1,2,4,5-tetrazine derivatives” (Bioorg Med Chem Lett, 2013).

Experiments:
[1] = test system: A549; experiment: Antiproliferative activity against human A549 cells by SRB assay; type: functional, cell-based
[2] = test system: P388; experiment: Antiproliferative activity against mouse P388 cells by MTT assay; type: functional, cell-based

Compound	IC50 ([1]; read-out: IC50)	IC50 ([1]; read-out: pIC50 (converted))	IC50 [2]
COc1cc(NC(=O)N2N=C(C)N(C(=O)Nc3cc(OC)cc(OC)c3)N=C2C)cc(OC)c1	0.035 µM	0.035 µM	–
CCOC(=O)N1C(c2ccccc2)=NN=C(c2ccccc2)N1C(=O)OCC	26.6 µM	–	11.2 µM
COC(=O)N1C(c2ccccc2)=NN=C(c2ccccc2)N1C(=O)OC	> 100 µM	–	> 100 µM
c1ccc(C2=NNC(c3ccccc3)=NN2)cc1	19.9 µM	19.9 µM	–
CC1=NN(C(=O)Nc2cccc(C)c2)C(C)=NN1C(=O)Nc1cccc(C)c1	0.574 µM	0.574 µM	–
CCCC1=NN(C(=O)Nc2ccccc2)C(CCC)=NN1C(=O)Nc1ccccc1	5.42 µM	5.42 µM	–
CCCC1=NN(C(=O)Nc2cccc(Cl)c2)C(CCC)=NN1C(=O)Nc1cccc(Cl)c1	1.1 µM	1.1 µM	–
CC1=NN(C(=O)Nc2cc(C)cc(C)c2)C(C)=NN1C(=O)Nc1cc(C)cc(C)c1	3.66 µM	3.66 µM	–
CC(C)C(=O)N1N=C(c2ccccc2)NN=C1c1ccccc1	2.22 µM	2.22 µM	–
O=C(CCl)N1N=C(c2ccc(C(F)(F)F)cc2)NN=C1c1ccc(C(F)(F)F)cc1	8.53 µM	8.53 µM	–
CCC(=O)N1N=C(c2ccc(C(F)(F)F)cc2)NN=C1c1ccc(C(F)(F)F)cc1	9.56 µM	9.55 µM	–
CC(=O)N1N=C(c2ccccc2)NN=C1c1ccccc1	44.7 µM	44.7 µM	–
O=C(CCl)N1N=C(c2ccccc2)NN=C1c1ccccc1	1.85 µM	1.85 µM	–
CCC(=O)N1N=C(c2ccccc2)NN=C1c1ccccc1	48.3 µM	48.3 µM	–
Oc1ccc(Cl)cc1C1=NN=C(c2cc(Cl)ccc2O)NN1	13.2 µM	13.2 µM	–
Clc1ccc(C2=NN=C(c3ccc(Cl)cc3)NN2)cc1	51.8 µM	51.8 µM	–
CCCCN1N=C(C)N(CCCC)N=C1C	68.5 µM	68.5 µM	–
CC1=NN(C(=O)Nc2cccc(O)c2)C(C)=NN1C(=O)Nc1cccc(O)c1	5.55 µM	5.55 µM	–
CC1=NN(C(=O)Nc2ccccc2O)C(C)=NN1C(=O)Nc1ccccc1O	57.3 µM	57.3 µM	–
COc1ccccc1NC(=O)N1N=C(c2ccccc2)NN=C1c1ccccc1	44.9 µM	44.9 µM	–
COC(=O)N1N=C(c2cccc(Cl)c2)N(C(=O)OC)N=C1c1cccc(Cl)c1	89 µM	88.9 µM	–
COC(=O)N1N=C(c2cccc([N+](=O)[O-])c2)N(C(=O)OC)N=C1c1cccc([N+](=O)[O-])c1	83.6 µM	83.6 µM	–
COC(=O)N1N=C(c2ccc(Cl)cc2)N(C(=O)OC)N=C1c1ccc(Cl)cc1	76.7 µM	76.7 µM	–
COC(=O)N1N=C(c2ccc(Cl)cc2Cl)N(C(=O)OC)N=C1c1ccc(Cl)cc1Cl	79.3 µM	79.3 µM	–
O=S(=O)(c1ccccc1)N1N=C(c2ccccc2)N(S(=O)(=O)c2ccccc2)N=C1c1ccccc1	74.1 µM	74.1 µM	–

Compound	IC50 ([1]; read-out: IC50)	IC50 ([1]; read-out: pIC50 (converted))	IC50 [2]
O=S(=O)(c1ccccc1)N1N=C(c2ccc(Cl)cc2)N(S(=O)(=O)c2ccccc2)N=C1c1ccc(Cl)cc1	51.9 µM	51.9 µM	–
COc1ccc(C2=NN(S(=O)(=O)c3ccccc3)C(c3ccc(OC)cc3)=NN2S(=O)(=O)c2ccccc2)cc1	58.8 µM	58.7 µM	–
Cc1ccc(S(=O)(=O)N2N=C(c3ccccc3)N(S(=O)(=O)c3ccc(C)cc3)N=C2c2ccccc2)cc1	85.8 µM	85.7 µM	–
Clc1ccc(CC2=NNC(Cc3ccc(Cl)cc3)=NN2)cc1	51.8 µM	51.8 µM	–
CCCOC(=O)N1C(c2ccc(C(F)(F)F)cc2)=NN=C(c2ccc(C(F)(F)F)cc2)N1C(=O)OCCC	> 100 µM	–	> 100 µM
O=C(Oc1ccccc1)N1C(c2ccc(C(F)(F)F)cc2)=NN=C(c2ccc(C(F)(F)F)cc2)N1C(=O)Oc1ccccc1	14.5 µM	–	26.6 µM
O=C(OCC1CCCCC1)N1C(c2ccc(C(F)(F)F)cc2)=NN=C(c2ccc(C(F)(F)F)cc2)N1C(=O)OCC1CCCCC1	> 100 µM	–	> 100 µM
COC(=O)N1N=C(c2ccccc2)NN=C1c1ccccc1	39.5 µM	39.5 µM	> 100 µM
CCOC(=O)N1N=C(c2ccccc2)NN=C1c1ccccc1	> 100 µM	–	> 100 µM
CCCOC(=O)N1N=C(c2ccccc2)NN=C1c1ccccc1	> 100 µM	–	> 100 µM
CCCCCOC(=O)N1N=C(c2ccccc2)NN=C1c1ccccc1	40.8 µM	40.8 µM	11.8 µM
CC(C)CCOC(=O)N1N=C(c2ccccc2)NN=C1c1ccccc1	44.2 µM	44.2 µM	24.6 µM
O=C(OCCCl)N1N=C(c2ccccc2)NN=C1c1ccccc1	101 µM	–	> 100 µM
CCOC(=O)N1N=C(c2ccc(C(F)(F)F)cc2)NN=C1c1ccc(C(F)(F)F)cc1	0.575 µM	0.575 µM	24.7 µM
COC(=O)N1N=C(c2ccc(Cl)cc2)NN=C1c1ccc(Cl)cc1	49.4 µM	49.4 µM	34.9 µM
O=C(OCC1CCCCC1)N1C(c2ccccc2)=NN=C(c2ccccc2)N1C(=O)OCC1CCCCC1	> 100 µM	–	> 100 µM
COC(=O)N1C(c2ccc(C(F)(F)F)cc2)=NN=C(c2ccc(C(F)(F)F)cc2)N1C(=O)OC	2.08 µM	–	30.4 µM
CCOC(=O)N1C(c2ccc(C(F)(F)F)cc2)=NN=C(c2ccc(C(F)(F)F)cc2)N1C(=O)OCC	51.1 µM	–	> 100 µM
CCCC1=NN(C(=O)Nc2cccc(C)c2)C(CCC)=NN1C(=O)Nc1cccc(C)c1	1 µM	1 µM	–
CCC1=NN(C(=O)Nc2cccc(C)c2)C(CC)=NN1C(=O)Nc1cccc(C)c1	0.639 µM	0.64 µM	–
CCCOC(=O)N1C(c2ccccc2)=NN=C(c2ccccc2)N1C(=O)OCCC	> 100 µM	–	11.7 µM
CC(C)C(=O)N1N=C(c2ccc(C(F)(F)F)cc2)NN=C1c1ccc(C(F)(F)F)cc1	31.6 µM	31.6 µM	–
CC(=O)N1N=C(c2ccc(C(F)(F)F)cc2)NN=C1c1ccc(C(F)(F)F)cc1	9.76 µM	9.75 µM	–
FC(F)(F)c1ccc(C2=NN=C(c3ccc(C(F)(F)F)cc3)NN2)cc1	40 µM	40 µM	–
